Laboratory results reported in patent publication EP0037049A1, “Biphenylyl-imidazolylethane derivatives, process for their preparation and medicaments containing them” (BAYER AG, priority 1980, dated 1981).

Test system: Dermatophyten, Schimmelpilze, Hefen
Assay: Antifungal in-vitro activity, serial dilution test
Assay type: cell-based
Conditions: incubation at 28°C, 24 h for yeasts, 96 h for dermatophytes and moulds, activity stated to be superior to prior-art compounds (A), (B), (C) and (D)
Description: Die in-vitro-Prüfung wurde im Reihenverdünnungstest mit Keiminokula von durchschnittlich […] Substrat durchgeführt. Als Nährmedium dienten • a) für Dermatophyten und Schimmelpilze: Sabourand's milieu d'epresive • b) für Hefen: • Isotonic Sensitest-Broth von Oxid.
Die Bebrütungstemperatur betrug 28°C; Bebrütungsdauer war 24 Stunden bei Hefen und 96 Stunden bei Dermatophyten und Schimmelpilzen.

| Structure (SMILES) | Antimykotische in-vitro-Wirksamkeit (Wirkung) |
| --- | --- |
| Fc1ccccc1C(Cn1ccnc1)c1ccc(-c2ccccc2)cc1 (stereo not shown) [Beispiel 6] | sehr gute Wirkung |
| Clc1ccccc1C(Cn1ccnc1)c1ccc(-c2ccccc2)cc1 (stereo not shown) [Beispiel 5] | sehr gute Wirkung |
| Clc1ccc(-c2ccc(C(Cn3cncn3)c3ccccc3Cl)cc2)cc1 (stereo not shown) [Beispiel 8] | sehr gute Wirkung |
| Clc1cccc(C(Cn2ccnc2)c2ccc(-c3ccccc3)cc2)c1 (stereo not shown) [Beispiel 7] | sehr gute Wirkung |
